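Tested at 5 concentrations; 48 h exposure; 96-well plates; endpoints linearly interpolated, else capped at highest concentration. Here, GI50 denotes the concentration required for 50% inhibition of growth.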 Active and inactive are the calls of the source. Cut-off read from the data, not from the text of the source: active = GI50 up to about 1.1 µM and inactive = higher.
Columns and labels:
Test in all cases: NCI anticancer screen, dose series, 48 h
COLO 205 = test system: COLO 205
DU-145 = test system: DU-145
EKVX = test system: EKVX
HL-60 = test system: HL-60
Hs-578T = test system: Hs-578T
MDA-MB-231 = test system: MDA-MB-231
MDA-MB-435 = test system: MDA-MB-435
MDA-N = test system: MDA-N
NCI-H522 = test system: NCI-H522
PC-3 = test system: PC-3
SR = test system: SR
T47D = test system: T47D
A498 = test system: A498
BT-549 = test system: BT-549
HOP-62 = test system: HOP-62
NCI-H226 = test system: NCI-H226
786-0 = test system: 786-0

Measured: GI50

NC(CCCCCCCCCCP(=O)(O)O)C(=O)O (centres undefined)
inactive: COLO 205 > 100 µM | DU-145 > 100 µM | EKVX > 100 µM | HL-60 > 100 µM | Hs-578T > 100 µM | MDA-MB-231 > 100 µM | MDA-MB-435 > 100 µM | MDA-N > 100 µM | NCI-H522 85.5 µM | PC-3 > 100 µM | SR > 100 µM | T47D > 100 µM

CC(C)(C)[Si](C)(C)OCC1OC(n2cnc3c(N)ncnc32)CC1OS(C)(=O)=O (centres undefined)
inactive: A498 43 µM | BT-549 54 µM | COLO 205 > 100 µM | DU-145 > 100 µM | HL-60 64.9 µM | HOP-62 45.8 µM | MDA-MB-231 22.1 µM | MDA-MB-435 > 100 µM | MDA-N > 100 µM | NCI-H226 > 100 µM | PC-3 > 100 µM | SR > 100 µM | T47D > 100 µM

CN1c2ccccc2C(=O)NC12CCN(CCCC(=O)c1ccc(F)cc1)CC2
inactive: 786-0 74.3 µM | BT-549 58.3 µM | COLO 205 16.3 µM | DU-145 > 100 µM | EKVX > 100 µM | HL-60 30.7 µM | HOP-62 > 100 µM | Hs-578T > 100 µM | MDA-MB-231 40.9 µM | MDA-MB-435 56.8 µM | MDA-N 88.7 µM | NCI-H226 > 100 µM | NCI-H522 26.7 µM | PC-3 78.2 µM | SR 32.4 µM | T47D 29 µM

OC1(c2ccccc2)CC2CCC(C1)N2CCc1ccccc1 (centres undefined)
inactive: 786-0 > 100 µM | A498 19 µM | BT-549 40.1 µM | COLO 205 17.6 µM | DU-145 48.4 µM | EKVX 97.5 µM | HL-60 58.9 µM | HOP-62 45.4 µM | Hs-578T 5.27 µM | MDA-MB-231 73.6 µM | MDA-MB-435 55.5 µM | MDA-N 56.8 µM | NCI-H226 61 µM | PC-3 41.6 µM | SR > 100 µM | T47D 45 µM

COC(=O)[C@@H]1C=C[C@H](NC(C)=O)C1
inactive: A498 > 100 µM | BT-549 > 100 µM | COLO 205 > 100 µM | DU-145 > 100 µM | HOP-62 > 100 µM | Hs-578T > 100 µM | MDA-MB-231 > 100 µM | MDA-MB-435 > 100 µM | MDA-N > 100 µM | NCI-H226 > 100 µM | PC-3 > 100 µM | SR > 100 µM | T47D > 100 µM

COc1cc(/C=C2\N=C(c3ccccc3)N(c3ccc(C(=O)c4ccccc4)cc3N3C(=O)/C(=C/c4cc(OC)c(OC)c(OC)c4)N=C3c3ccccc3)C2=O)cc(OC)c1OC
inactive: 786-0 16.8 µM | A498 12 µM | BT-549 14.4 µM | COLO 205 16.4 µM | DU-145 14.5 µM | EKVX 24.8 µM | HL-60 4.05 µM | HOP-62 20.7 µM | Hs-578T 17.9 µM | MDA-MB-231 16.9 µM | MDA-MB-435 2.85 µM | MDA-N 2.73 µM | NCI-H522 4.65 µM | PC-3 12.6 µM | T47D 4.93 µM

CCOC(=O)Cn1c(=O)c2cc(C)cc3c(Cl)nc4c(OC)c(OC)cc1c4c32
inactive: 786-0 29.7 µM | BT-549 56.6 µM | COLO 205 > 100 µM | DU-145 > 100 µM | EKVX > 100 µM | HL-60 > 100 µM | HOP-62 > 100 µM | Hs-578T 31.8 µM | MDA-MB-231 > 100 µM | MDA-MB-435 > 100 µM | MDA-N > 100 µM | NCI-H226 > 100 µM | NCI-H522 > 100 µM | PC-3 > 100 µM | SR 50 µM

COC(=O)c1cc(NC2OCC(OC(C)=O)C(OC(C)=O)C2OC(C)=O)nc(SC)c1C(=O)OC (centres undefined)
inactive: 786-0 > 100 µM | BT-549 > 100 µM | COLO 205 > 100 µM | DU-145 > 100 µM | EKVX > 100 µM | HL-60 74 µM | HOP-62 > 100 µM | Hs-578T > 100 µM | MDA-MB-231 > 100 µM | MDA-MB-435 > 100 µM | MDA-N > 100 µM | NCI-H522 > 100 µM | PC-3 > 100 µM | SR > 100 µM | T47D > 100 µM

CC1=C(C)[C@@]2(C)O[C@@]2(C)O[C@@]2(C)O[C@@]12C
inactive: A498 > 100 µM | BT-549 > 100 µM | COLO 205 > 100 µM | DU-145 > 100 µM | EKVX > 100 µM | HOP-62 > 100 µM | Hs-578T > 100 µM | MDA-MB-231 > 100 µM | MDA-MB-435 > 100 µM | MDA-N > 100 µM | NCI-H226 > 100 µM | NCI-H522 > 100 µM | PC-3 > 100 µM | SR > 100 µM | T47D > 100 µM

Cc1ccc2oc3c(ccc(=O)n3C)c(=O)c2c1
inactive: A498 > 100 µM | COLO 205 > 100 µM | DU-145 > 100 µM | EKVX 89.7 µM | HL-60 > 100 µM | HOP-62 > 100 µM | Hs-578T > 100 µM | MDA-MB-231 > 100 µM | MDA-MB-435 > 100 µM | MDA-N > 100 µM | NCI-H226 > 100 µM | NCI-H522 > 100 µM | PC-3 > 100 µM | SR > 100 µM | T47D > 100 µM

COC(=S)OC1CC(n2cnc3c(N)ncnc32)OC1CO[Si](C)(C)C(C)(C)C (centres undefined)
inactive: A498 22 µM | BT-549 21.9 µM | COLO 205 17.7 µM | DU-145 16.8 µM | HL-60 > 100 µM | HOP-62 16 µM | MDA-MB-231 18.8 µM | MDA-MB-435 17 µM | MDA-N 18.5 µM | NCI-H226 21.8 µM | PC-3 12.1 µM | SR 17.5 µM | T47D 11.8 µM

COc1ccc(OC)c(SC(CC(=O)c2ccccc2)c2ccccc2)c1 (centres undefined)
inactive: 786-0 15.6 µM | COLO 205 19.5 µM | DU-145 7.85 µM | EKVX 15.2 µM | HL-60 > 100 µM | HOP-62 20.9 µM | Hs-578T 28.4 µM | MDA-MB-231 7.45 µM | MDA-MB-435 13 µM | NCI-H226 14.3 µM | NCI-H522 14.6 µM | PC-3 14.8 µM | SR 7.6 µM | T47D 10.1 µM

Cc1cc(S(=O)(=O)Nc2nc(Nc3ccccc3)n[nH]2)c(SSc2cc(Cl)c(C)cc2S(=O)(=O)Nc2nc(Nc3ccccc3)n[nH]2)cc1Cl
inactive: BT-549 > 100 µM | COLO 205 > 100 µM | DU-145 > 100 µM | EKVX > 100 µM | HL-60 25.1 µM | HOP-62 > 100 µM | Hs-578T 86.1 µM | MDA-MB-231 32.2 µM | MDA-MB-435 > 100 µM | MDA-N > 100 µM | PC-3 > 100 µM | SR 40.2 µM | T47D 67.5 µM

C1CC2=C(C1)[Se]C(=C1Sc3nsnc3S1)[Se]2
inactive: 786-0 > 100 µM | BT-549 > 100 µM | COLO 205 > 100 µM | DU-145 > 100 µM | EKVX > 100 µM | HOP-62 > 100 µM | Hs-578T > 100 µM | MDA-MB-231 > 100 µM | MDA-MB-435 39 µM | MDA-N 21.7 µM | NCI-H226 > 100 µM | NCI-H522 > 100 µM | PC-3 > 100 µM | T47D > 100 µM

Source: ChEMBL document CHEMBL1201862, “PubChem BioAssay data set” (2004)
